Data published in the supplement of paper PMC11208160.

test: recombinant UMI read abundance after kanamycin selection (control-corrected) (log10(CPM+1)); higher = more efficient recombination; extreme values may be limits of the assay; sequences stand for … in AGTGCAGAGAAAATCGGCCAGTTTTCTCTGCCTGCAGTCCGCATGCCGTGGGACCCCTTGGGTTCTAACCTGTTGCCTAGATTTATGCAGCGGACTGCCTTTCTCCCAAAGTGATAAACCGG…AGGTTGGTTTCACT; site = the 11-nt donor
Outline: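 For the IS621 bridge recombinase, a pooled Escherichia coli screen tested donor and donor-binding-loop pairs. Cells received the pair library together with a target plasmid encoding a fixed target and T7-inducible recombinase, then went onto IPTG (0.07 mM) plus kanamycin or unselected plates in duplicate. After PCR across the donor–target junction and sequencing, recombinant UMI counts were normalized to CPM, averaged, and scaled by control-derived factors. Each value is given as log10(CPM+1).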
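Also: IS621 bridge recombinase in Escherichia coli cells against a fixed T5 target plasmid.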

Sequence	recombinant UMI read abundance (log10)
CCCCTCTCATGGACCGGTTTTCCCGGTAATCCGTATTTGGG (site CCCATCTCTCC)	0
CCCCTCTCATGGACCGGTTTTCCCGGTAATCCGTATTTGGG (site CCCCTCTCTCC)	0.0198
CCCCTCTCATGGACCGGTTTTCCCGGTAATCCGTATTTGGG (site CCCGTCTCTCC)	0.00587
CCCCTCTCATGGACCGGTTTTCCCGGTAATCCGTATTTGGG (site CCCTTCTCTCC)	0
CCCCTTACATGGACCGGTTTTCCCGGTAATCCGTATTTGGT (site CCCCTTACTAC)	0.238
CCCGACCCATGGACCGGTTTTCCCGGTAATCCGTATTTGAG (site CCCGACCCTCT)	0.0182
CCCGAGTCATGGACCGGTTTTCCCGGTAATCCGTATTTGCC (site CCCGAGTCTGG)	0.938
CCCGGCCCATGGACCGGTTTTCCCGGTAATCCGTATTTGCA (site CCCGGACCTTG)	0.00734
CCCGGCCCATGGACCGGTTTTCCCGGTAATCCGTATTTGCA (site CCCGGCCCTTG)	0
CCCGGCCCATGGACCGGTTTTCCCGGTAATCCGTATTTGCA (site CCCGGGCCTTG)	0
CCCGGCCCATGGACCGGTTTTCCCGGTAATCCGTATTTGCA (site CCCGGTCCTTG)	0.0145
CCCGGTTCATGGACCGGTTTTCCCGGTAATCCGTATTTGCA (site CCCGGTACTTG)	0
CCCGGTTCATGGACCGGTTTTCCCGGTAATCCGTATTTGCA (site CCCGGTCCTTG)	0
CCCGGTTCATGGACCGGTTTTCCCGGTAATCCGTATTTGCA (site CCCGGTGCTTG)	0.0148
CCCGGTTCATGGACCGGTTTTCCCGGTAATCCGTATTTGCA (site CCCGGTTCTTG)	1.83
CCCGTACCATGGACCGGTTTTCCCGGTAATCCGTATTTGCT (site CCCGTACCTAG)	0
CCCGTCGCATGGACCGGTTTTCCCGGTAATCCGTATTTGCC (site CCCGTCGCTGG)	1.45
CCCGTCTCATGGACCGGTTTTCCCGGTAATCCGTATTTGGG (site CCCATCTCTCC)	0.0267
CCCGTCTCATGGACCGGTTTTCCCGGTAATCCGTATTTGGG (site CCCCTCTCTCC)	0.0424

Sequence	recombinant UMI read abundance (log10)
CCCGTCTCATGGACCGGTTTTCCCGGTAATCCGTATTTGGG (site CCCGTCTCTCC)	0.0026
CCCGTCTCATGGACCGGTTTTCCCGGTAATCCGTATTTGGG (site CCCTTCTCTCC)	0.018
CCCTAACCATGGACCGGTTTTCCCGGTAATCCGTATTTGCT (site CCCTAACCTAG)	0
CCCTACTCATGGACCGGTTTTCCCGGTAATCCGTATTTGGG (site CCCTACTCTCC)	0.346
CCCTACTCATGGACCGGTTTTCCCGGTAATCCGTATTTGGG (site CCCTCCTCTCC)	0.00345
CCCTACTCATGGACCGGTTTTCCCGGTAATCCGTATTTGGG (site CCCTGCTCTCC)	0.0112
CCCTACTCATGGACCGGTTTTCCCGGTAATCCGTATTTGGG (site CCCTTCTCTCC)	0.00875
CCCTAGCCATGGACCGGTTTTCCCGGTAATCCGTATTTGGC (site CCCTAGCCTGA)	0
CCCTAGCCATGGACCGGTTTTCCCGGTAATCCGTATTTGGC (site CCCTAGCCTGC)	0
CCCTAGCCATGGACCGGTTTTCCCGGTAATCCGTATTTGGC (site CCCTAGCCTGG)	0
CCCTAGCCATGGACCGGTTTTCCCGGTAATCCGTATTTGGC (site CCCTAGCCTGT)	0
CCCTATCCATGGACCGGTTTTCCCGGTAATCCGTATTTGAC (site CCCTATCCTGT)	0
CCCTATTCATGGACCGGTTTTCCCGGTAATCCGTATTTGCT (site CCCTATTCTAG)	1.7
CCCTCCTCATGGACCGGTTTTCCCGGTAATCCGTATTTGCC (site CACTCCTCTGG)	0.544
CCCTCCTCATGGACCGGTTTTCCCGGTAATCCGTATTTGCC (site CCCTCCTCTGG)	2.25
CCCTCCTCATGGACCGGTTTTCCCGGTAATCCGTATTTGCC (site CGCTCCTCTGG)	0
CCCTCCTCATGGACCGGTTTTCCCGGTAATCCGTATTTGCC (site CTCTCCTCTGG)	0.448
CCCTCGCCATGGACCGGTTTTCCCGGTAATCCGTATTTGCC (site CCCTAGCCTGG)	0
